# According to the supplement of paper PMC10307832:
# Assays:
# Experiment in all cases: relative viability (nuclei count vs DMSO), 5 days (fraction); higher = more cells survive
# [1] = compound: C1CNCCC1C2=CC(=NN2)C3=CC=NC=C3 + Cc1nc(NC(=O)N2CCC[C@H]2C(N)=O)sc1-c1ccnc(C(C)(C)C(F)(F)F)c1 [Alpelisib] (partner 2 µM)
# Method in brief: (§1)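 Medians of duplicate plates are given as relative viability. That measure is the nuclei count in treated wells divided by the count in vehicle wells. Counts were taken on 4× images of lung cancer cell lines in 1536-well plates, 5 days after pin-tool dosing the day after seeding with one drug alone or a fixed anchor-drug dose plus five library-drug doses (not always all listed) in √10 steps.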
# [2] = compound: C[C@@H](N)c1ccc(C(=O)Nc2ccnc3[nH]ccc23)cc1 + CC(=O)Nc1cccc(-n2c(=O)n(C3CC3)c(=O)c3c(Nc4ccc(I)cc4F)n(C)c(=O)c(C)c32)c1 [Trametinib] (partner 0.02 µM)
# Method in brief: as §1
# [3] = compound: C[C@@H](N)c1ccc(C(=O)Nc2ccnc3[nH]ccc23)cc1 + O=C(CCCCCCC(=O)Nc1ccccc1)NO [Vorinostat] (partner 1 µM)
# Method in brief: as §1
# Tanzisertib + Dasatinib = compound: O[C@H]1CC[C@H](Nc2ncc3nc(Nc4c(F)cc(F)cc4F)n([C@H]4CCOC4)c3n2)CC1 [Tanzisertib] + Cc1nc(Nc2ncc(C(=O)Nc3c(C)cccc3Cl)s2)cc(N2CCN(CCO)CC2)n1 [Dasatinib] (partner 0.075 µM)
# Method in brief: as §1
Cell Line,relative viability ([1]; first compound 0.08 µM),relative viability ([1]; first compound 0.8 µM),relative viability ([1]; first compound 2.53 µM),relative viability ([1]; first compound 8 µM),relative viability ([2]; first compound 0.04 µM),relative viability ([2]; first compound 0.1265 µM),relative viability ([2]; first compound 0.4 µM),relative viability ([2]; first compound 1.265 µM),relative viability ([2]; first compound 4 µM),relative viability ([3]; first compound 0.04 µM),relative viability ([3]; first compound 0.1265 µM),relative viability ([3]; first compound 0.4 µM),relative viability ([3]; first compound 1.265 µM),relative viability ([3]; first compound 4 µM),relative viability (Tanzisertib + Dasatinib; first compound 0.08 µM),relative viability (Tanzisertib + Dasatinib; first compound 0.253 µM),relative viability (Tanzisertib + Dasatinib; first compound 0.8 µM),relative viability (Tanzisertib + Dasatinib; first compound 2.53 µM),relative viability (Tanzisertib + Dasatinib; first compound 8 µM)
NCI-H1355,0.826,0.706,0.804,0.822,0.482,0.427,0.446,0.433,0.393,0.663,0.626,0.686,0.583,0.57,0.757,0.757,0.78,0.628,0.707
EKVX,0.738,0.573,1.03,0.818,0.482,0.446,0.396,0.556,0.22,0.672,0.672,0.83,0.44,0.517,0.467,0.565,0.55,0.503,0.411
NCI-H441,–,0.628,0.833,0.708,0.522,0.61,0.478,0.38,0.405,0.946,0.827,1.03,0.739,0.835,0.625,0.499,0.605,0.479,0.521
NCI-H1975,0.667,0.622,0.58,0.629,0.286,0.4,0.449,0.194,0.233,0.734,0.649,0.667,0.609,0.584,0.421,0.446,0.365,0.356,0.329
HCC-78,0.344,–,0.37,0.411,0.979,0.793,0.981,1.2,0.661,0.533,0.425,0.622,0.706,0.618,0.469,0.54,0.3,0.325,0.255
NCI-H2085,0.926,0.514,1.02,0.98,0.653,0.702,0.652,0.726,0.583,0.77,0.705,0.806,0.667,0.706,0.22,0.246,0.24,0.224,0.261
H3255,0.674,0.646,0.858,0.734,0.704,0.694,0.748,0.757,0.583,0.89,0.816,0.886,0.655,0.715,0.426,0.499,0.306,0.345,0.344
NCI-H2087,0.862,1.07,1.07,0.985,0.284,0.214,0.202,0.229,0.251,0.659,0.58,0.466,0.593,0.549,0.842,0.876,0.77,0.967,0.686
LC-2-ad,0.791,0.751,0.913,0.934,0.957,0.911,0.883,0.926,0.727,0.497,0.736,0.713,0.476,0.369,0.789,0.642,0.686,0.684,0.403
PC-3 [JPC-3],1,1.03,1.05,1.02,0.656,0.695,0.732,0.651,0.549,0.803,0.77,0.85,0.836,0.725,0.912,1.04,1.01,0.977,0.886
EBC-1,0.926,0.704,0.819,0.857,–,–,–,–,–,–,–,–,–,–,–,–,–,–,–
HCC-15,0.856,0.856,0.898,0.839,0.456,0.365,0.422,0.384,0.362,0.844,0.817,0.933,0.997,0.868,0.764,0.646,0.637,0.642,0.591
NCI-H1563,0.709,0.932,0.95,0.989,–,–,–,–,–,–,–,–,–,–,0.435,0.479,0.451,0.471,0.436
COR-L 105,0.954,1.05,1.11,0.852,0.441,0.518,0.449,0.417,0.458,1.04,0.793,0.998,0.76,0.544,0.397,0.356,0.297,0.354,0.255
NCI-H520,0.88,0.666,0.831,0.658,0.915,0.73,0.697,0.891,0.719,0.862,0.757,0.813,0.714,0.693,0.233,0.207,0.232,0.192,0.23
LU99A,0.545,0.579,0.65,0.566,–,0.586,0.52,0.477,0.483,–,0.529,0.503,0.418,0.366,0.585,0.629,0.556,0.557,0.496
NCI-H1666,0.907,0.849,1.18,1.13,0.852,0.903,0.981,0.916,0.926,1.1,1.05,1.22,1.5,1.31,0.821,0.843,0.755,0.841,0.955
NCI-H2170,0.734,0.761,0.81,0.684,0.959,0.944,0.926,0.999,0.939,0.854,0.886,0.902,0.771,0.846,0.625,0.586,0.574,0.568,0.512
NCI-H522,–,–,–,–,0.798,0.789,0.66,1.02,0.745,0.921,0.907,0.892,0.913,0.753,0.937,0.974,0.845,0.855,0.884
LCLC-97TM1,0.224,0.205,0.241,0.225,0.211,0.193,0.227,0.259,0.18,0.835,0.374,0.69,0.0878,0.779,0.953,0.878,0.831,0.786,0.901
NCI-H1299,1.13,1.22,1.04,1.06,–,–,–,–,–,–,–,–,–,–,–,–,–,–,–

Cell Line,relative viability ([1]; first compound 0.08 µM),relative viability ([1]; first compound 0.8 µM),relative viability ([1]; first compound 2.53 µM),relative viability ([1]; first compound 8 µM),relative viability ([2]; first compound 0.04 µM),relative viability ([2]; first compound 0.1265 µM),relative viability ([2]; first compound 0.4 µM),relative viability ([2]; first compound 1.265 µM),relative viability ([2]; first compound 4 µM),relative viability ([3]; first compound 0.04 µM),relative viability ([3]; first compound 0.1265 µM),relative viability ([3]; first compound 0.4 µM),relative viability ([3]; first compound 1.265 µM),relative viability ([3]; first compound 4 µM),relative viability (Tanzisertib + Dasatinib; first compound 0.08 µM),relative viability (Tanzisertib + Dasatinib; first compound 0.253 µM),relative viability (Tanzisertib + Dasatinib; first compound 0.8 µM),relative viability (Tanzisertib + Dasatinib; first compound 2.53 µM),relative viability (Tanzisertib + Dasatinib; first compound 8 µM)
NCI-H3122,0.87,0.81,0.799,0.753,0.231,0.229,0.223,0.26,0.234,1.04,1.04,1.02,1.03,1.29,0.775,0.817,0.791,0.92,0.926
NCI-H1395,0.977,0.77,1.46,0.975,1.04,0.996,1.03,–,0.912,0.622,0.772,0.704,–,0.796,0.439,0.428,0.406,0.437,0.375
NCI-H2009,1.25,1.16,1.13,1.14,0.219,0.268,0.236,0.21,0.214,0.617,0.703,0.683,0.703,0.632,0.324,0.318,0.296,0.308,0.24
NCI-H1651,0.767,1.09,0.904,1,0.877,0.862,0.959,0.941,0.848,0.603,0.526,0.647,0.586,0.561,0.378,0.522,0.378,0.336,0.417
HARA,0.821,0.811,0.898,0.82,0.918,1.01,0.804,0.549,0.936,0.521,0.646,0.604,0.403,0.26,0.279,0.246,0.254,0.278,0.265
NCI-H1944,0.85,0.601,0.83,0.938,0.479,0.412,0.467,0.503,0.402,0.56,0.553,0.616,0.491,0.582,0.254,0.23,0.234,0.196,0.22
NCI-H2347,0.989,0.938,1.17,1.01,0.283,0.337,0.366,0.304,0.175,0.762,0.508,0.554,0.559,0.676,0.333,–,0.309,0.26,0.303
201T,1.06,0.841,1.04,1.04,0.701,0.712,0.733,0.758,0.815,0.909,0.886,0.981,0.891,1.24,0.546,0.608,0.537,0.496,0.582
Calu-6,0.896,1.05,1.03,1.04,–,–,–,–,–,–,–,–,–,–,–,–,–,–,–
NCI-H1703,0.345,0.268,0.347,0.278,–,–,–,–,–,–,–,–,–,–,–,–,–,–,–
NCI-H1650,–,–,–,–,0.579,0.786,0.648,0.554,0.609,0.7,0.663,0.675,0.663,0.648,0.319,0.305,0.273,0.283,0.28
NCI-H2342,–,–,–,–,0.91,0.821,0.837,0.746,0.737,0.772,0.744,0.704,0.869,0.731,0.32,0.311,0.308,0.283,0.32
NCI-H1792,0.637,0.519,0.773,0.618,0.5,0.465,0.597,0.698,0.324,–,–,–,–,–,0.819,0.685,0.78,0.724,0.552
ChaGo-K-1,–,–,–,–,0.888,0.863,0.823,0.894,0.789,0.702,0.751,0.743,0.555,0.676,0.647,0.606,0.605,0.533,0.59
NCI-H1623,–,–,–,–,–,–,–,–,–,–,–,–,–,–,0.59,0.572,0.608,0.455,0.514
HCC-44,0.815,0.7,0.794,0.794,1.08,1.11,1.18,1.16,0.952,1.16,1.07,1.02,1.16,0.82,–,–,–,–,–
SW 900,–,–,–,–,0.888,0.861,1.04,1.14,0.993,0.716,0.54,0.738,0.884,0.877,0.692,0.574,0.585,0.621,0.496
ABC-1,0.997,0.857,1.19,1.13,–,–,–,–,–,1.23,1.11,1.01,0.998,0.941,0.586,0.604,0.523,0.614,0.597
NCI-H1648,–,–,–,–,0.57,0.581,0.574,0.266,0.722,0.623,0.81,0.754,0.952,0.899,–,–,–,–,–
IA-LM,0.834,0.763,0.762,0.837,–,–,–,–,–,1.23,0.835,1.33,1.37,1.23,–,–,–,–,–
A549,0.55,0.65,0.881,0.848,–,–,–,–,–,–,–,–,–,–,–,–,–,–,–
